Test results reported in patent publication US6613756B2 (Wisconsin Alumni Research Foundation, priority 2000, dated 2003).
Where a name gives a salt, the structure may show the parent alone.

Legend:
[1] = tested on: DA rats with MOG-induced EAE; assay: High-dose MOG (100 μg rMOG/IFA) immunization paradigm of EAE; type: in vivo, rat
Procedure: Statistical analysis of clinical scores was performed by averaging them over all times of the treatment and subtracting the first 11 days after immunization when clinical score in all groups was 0. Statistical significance was established using a repeated measures analysis where clinical score between treatments was compared from day 12 to 42 building in an auto-correlation of the error term. ANOVA and Student's t-test were used to establish the difference between experimental groups in all other examined parameters. […]

[2] = tested on: DA rats with MOG-induced EAE; assay: Low-dose MOG (10 μg rMOG/CFA) immunization paradigm of relapsing remitting EAE; type: in vivo, rat; settings: for % Of Dorsal Column Demyelinated / % Of Mortality / Mean Cumulative Score / % Of Incidence: 10 μg rMOG/CFA
Procedure: Experiments were performed on 6-8 week old female DA rats obtained from Harlan-Sprague Dawley, Indianapolis, Ind. or Harlan-Winkelmann, Germany. During the observation period, rats were housed in a light- and temperature-controlled environment and were permitted free access to food and water. The recombinant extracellular immunogobulin domain of MOG was expressed in E. coli and purified as described previously (Raine, C. S., et al., Ann. Neurol. 46:144-160, 1999).
Rats were immunized sub-cutaneously (s.c.) at the base of the tail with either 10 μg MOG in complete Freund's adjuvant (CFA) or 100 μg MOG emulsified in incomplete Freund's adjuvant (IFA) (Difco, Detroit, Mich.) in a total volume of 100 μl. Animals were weighed and examined daily for clinical signs of EAE that was scored on the following scale: 0.5, partial loss of tail tone; 1, complete tail atony; 2, hind limb weakness; 3, hind limb paralysis; 4, moribund; 5, dead. […]
(§1) Matched unimmunized, naive groups were also included: N^pbs-PBS-treated animals (n=10), N^tr1-minocycline-treated from experimental day 10 (n=10), N^tr2-minocycline-treated from experimental day 13 (n=5), N^tr3 minocycline-treated from experimental day 13, with twice daily injections during the first two days followed by single injection throughout the remaining treatment period (n=5).
Animals were deeply anesthetized with pentobarbital and perfused transcardially with Ringer's followed by 4% paraformaldehyde. The brain and spinal cord were removed and prepared for paraffin and epon embedding or cryo-protected in 30% sucrose. Paraffin sections were used to assess the degree of inflammation (hematoxylin and eosin) and one-micron semithin sections were used to estimate the demyelination in the spinal cord (toluidine blue). Areas with inflammatory infiltrates or demyelinating lesions in the dorsal funiculus of spinal cord were scored using a CCD72 camera to collect digital images that were analyzed with the Microcomputer Imaging Device (MCID) software from Imaging Research Inc. (St. Catherines, Ontario). Measurements for cell infiltrates and demyelination were expressed as percent of the total white matter area of the dorsal funiculus. To determine the profile of inflammatory infiltrates within lesions 10 μm cryostat sections of thoracic-lumbar spinal cord were immunolabelled for MHC II (Harlan Sera-Lab), CR3, CD45 (Serotec), GFAP (Dako), CD3 (PharMingen) and MMP-2 (Oncogne Research Products) protein expression. Primary antibodies were detected using a biotinylated secondary antibodies and the avidin: biotin enzyme complex technique (Vector Laboratories). Areas with immunolabelling-defined inflammatory infiltrates were scored using a semi-quantitative scale: 0-no inflammatory infiltrates or lesions, 1-25%, 2-50%, 3-75%, and 4-100% of the dorsal funiculus.
Statistical analysis of clinical scores was performed by averaging them over all times of the treatment and subtracting the first 11 days after immunization when clinical score in all groups was 0. Statistical significance was established using a repeated measures analysis where clinical score between treatments was compared from day 12 to 42 building in an auto-correlation of the error term. ANOVA and Student's t-test were used to establish the difference between experimental groups in all other examined parameters. Statistically significant differences were presented as: * for P<0.05, ** for P<0.01, and *** for P<0.001.

[3] = tested on: MOG-specific T-cell response; assay: MOG-specific T-cell response of draining lymph node cells from treated rats; type: cell-based, rat; settings: high-dose MOG; minocycline day 1 to 10; 10 d.p.i.
Procedure: Draining lymph nodes and spleens were removed 10 days post-immunization (d.p.i.) and proliferation assays performed in flat-bottomed 96-well tissue culture plates in a total volume of 200 μl using either 5×10^5 lymph node or spleen cells (Raine, C. S., et al., supra, 1999). Antigen specific proliferation was assessed by the incorporation of ^3H-thymidine (10 μCi/well) during the final 18 hours of a 72 hour culture period using a Packard Matrix 96 Direct Beta counter.

[4] = tested on: naive DA rats; assay: Minocycline treatment of naive, non-immunized animals; type: in vivo, rat
Source text: In the high-dose MOG immunization paradigm rats were separated into two groups: EAE^pbs-phosphate-buffered saline (PBS)-treated rats (n=5) from day 1 post-immunization and EAE^tr-minocycline-treated rats (n=6) from day 1 post-immunization.
as §1

[5] = tested on: collagenase; settings: cited from earlier work
[6] = minocycline from day 10 (EAEtr1)
[7] = minocycline from day of onset (EAEtr2)
[8] = minocycline from day of onset, double-dose (EAEtr3)

SMILES	% Of Incidence ([1]; minocycline 45 mg/kg i.p. daily from day 1, terminated day 20)	% Of Dorsal Column Demyelinated ([1]; minocycline from day 1)	Mean Cumulative Score ([1]; minocycline from day 1, sum of daily scores of all animals / number of animals)	% Of Mortality ([1]; minocycline from day 1, terminated day 20)	% Of Dorsal Column Demyelinated [2, 6]	% Of Mortality [2, 6]	Mean Cumulative Score [2, 6]	% Of Incidence ([2]; minocycline from day 10 (EAEtr1), 42 days)	% Of Dorsal Column Demyelinated [2, 7]	% Of Incidence [2, 7]	% Of Mortality [2, 7]	Mean Cumulative Score [2, 7]	% Of Dorsal Column Demyelinated [2, 8]	% Of Mortality [2, 8]	Mean Cumulative Score [2, 8]	% Of Incidence ([2]; minocycline from day of onset, double-dose first two days (EAEtr3))	maximal clinical disease grade reached ([2]; twice daily for first two days from onset, then once daily (EAEtr3))	antigen specific proliferative response of draining lymph node cells [3]	adverse effects [4]	anti-collagenase activity [5]
CN(C)c1ccc(O)c2c1C[C@H]1C[C@H]3[C@H](N(C)C)C(O)=C(C(N)=O)C(=O)[C@@]3(O)C(O)=C1C2=O [Minocycline, Minocycline hydrochloride]	80%	6.25%	5.5	0%	5.94%	0%	7.43	40%	0.12%	100%	0%	26.25	0.04%	0%	10.12	100%	≤ 1	no significant effect	not found to induce any adverse effects	
NC(=O)C1=C(O)C[C@@H]2C[C@@H]3Cc4cccc(O)c4C(=O)C3=C(O)[C@]2(O)C1=O [CMT-3, 6-demethyl 6-deoxy 4-dedimethylamino tetracycline]																				persistent anti-collagenase activity
CC1(O)c2cccc(O)c2C(=O)C2=C(O)C3(O)C(=O)C(C(N)=O)=C(O)CC3CC21 (stereo not drawn) [CMT-1, 4-dedimethylamino tetracycline]																				persistent anti-collagenase activity
